Entries after “also recorded” stand apart in the source; their conditions may differ. Like-named read-outs stand apart in the source and are kept apart here.
Experiments:
[1] = set-up: method as in not printed at the place; details: clinical use; ref not given; cited from earlier work
[2] = system: SC-VLP entry into HEK-hACE2 cells; assay: SARS-CoV-2 VLP (SC-VLP) internalization assay in HEK-hACE2 cells, luciferase; format: cell-based; details: 12.5 μM during SC-VLP production
SARS-CoV-2 = SARS-CoV-2 infectivity in supernatants of infected Vero cells, plaque assay; format: cell-based; details: read-out: IC50 (SARS-CoV-2)
Method: Vero cells were seeded in appropriate plates and allowed to reach an approximately 90% confluence. For infection, 200 μL of viral suspension containing 10^5 pfu (SARS-CoV-2 strain SARS-CoV-2/human/Czech Republic/951/2020) was added to each well and incubated for 2 h at 37 °C to allow virus adsorption. After the incubation, the viral medium was removed, and the wells were washed gently with phosphate-buffered saline (PBS). Test compounds were prepared in serial dilutions to final concentrations of 50, 25, 12.5, 6.25, 3.125, and 0 μM in the medium (DMEM containing 2% FBS). The compounds were added in quadruplicate to the infected cells. The plates were then incubated for 48 h at 37 °C. Following the 48 h treatment period, the supernatants were removed, and plaque assays in Vero E6 cells were performed to assess viral titers. Cells were fixed and stained 4 days after infection to visualize plaques, as described previously.
(§1) The half-maximum inhibitory concentration value (IC50) indicating the concentration of compound needed to reduce virus titer by 50% in comparison to the control, was evaluated by GraphPad software (version 5.01, GraphPad Software, San Diego, CA).

[3] = MTS-based cell viability assay in LR7 cells; set-up: species or system mouse; details: mouse, LR7 cells, 48 h, 0–100 μM, read-out: CC50 (MHV block)
Method: (§2) LR7, LLC-Mk2 or Vero cells were seeded in 96-well plates and cultured overnight. Next, the medium was changed to a new one supplemented with different concentrations (in triplicate) of analyzed compounds. Following the 2 days (LR7 and Vero) or 4 days (LLC-Mk-2) of incubation, CellTiter 96 AQueous nonradioactive cell proliferation assay (Promega) was performed according to the manufacturer’s instruction. The half-maximal cytotoxic concentration (CC50) was calculated as the concentration of a compound needed to reduce cell viability by 50% using GraphPad Prism software (version 5.01, GraphPad Software, San Diego, CA).

LR7 cells = assay: MTS-based cell viability assay in LR7 cells; set-up: species or system mouse; details: 50 μM, uninfected LR7 cells
Method: as §2

[4] = system: murine hepatitis virus strain A59 (MHV); assay: Reduction of MHV cytopathic effect (CPE) in LR7 cells, MTS/PMS readout; format: cell-based
Method: LR7 cells were seeded in a 96-well plate and cultured overnight. Next, the cells were infected with MHV at an MOI value of 0.01 in medium without FBS. Following 1 h of incubation, the medium containing the virus was collected and cells were covered with a medium supplemented with different concentrations (in triplicate) of the analyzed compounds or DMSO. 24 h p.i. cells viability was evaluated by CellTiter 96 AQueous nonradioactive cell proliferation assay (Promega) according to the manufacturer’s instruction.

[5] = system: murine hepatitis virus strain A59 (MHV); assay: MHV titer in medium of infected LR7 cells, plaque assay; format: cell-based; details: for IC50: Murine coronavirus
Method: LR7 or LLC-Mk2 cells were infected at a MOI of 0.01 with MHV and HCoV-NL63, respectively, and treated with selected compounds at a concentration ranging from 0 to 50 μM. Culture supernatants were collected 1 day (MHV) or 4 days (HCoV-NL63) after infection. Virus titer was determined by plaque assay.
as §1

[6] = MTS-based cell viability assay in LLC-Mk2 cells; details: Macaca mulatta, read-out: CC50 (HCoV-NL63 block)
Method: as §2

[7] = system: human coronavirus strain NL63 (HCoV-NL63); assay: HCoV-NL63 titer in medium of infected LLC-Mk2 cells, foci-forming assay; format: cell-based
Method: LR7 or LLC-Mk2 cells were infected at a MOI of 0.01 with MHV and HCoV-NL63, respectively, and treated with selected compounds at a concentration ranging from 0 to 50 μM. Culture supernatants were collected 1 day (MHV) or 4 days (HCoV-NL63) after infection. […]
as §1

[8] = MTS-based cell viability assay in Vero cells; details: African green monkey, 96 h per table footnote, read-out: CC50 (SARS-CoV-2 block)
Method: as §2

[9] = system: human coronavirus strain NL63 (HCoV-NL63); assay: HCoV-NL63 N protein expression in LLC-Mk2 cells, Western blot and densitometry; format: cell-based; details: 50 μM, MOI 0.01, 4 days p.i., Western blot/densitometry
Method: LLC-Mk2 monolayers grown in 24-well plates were infected with HCoV-NL63 at an MOI value of 0.01 for 2 h. Unbound virus was removed, and cells were cultured in medium supplemented with different concentrations of compounds. Four days postinfection, cells were collected and lysed in CellLyticM Cell Lysis Reagent (Sigma). Following the protein separation by SDS-PAGE and transfer to PVDF membranes, proteins were immunoblotted using specific mouse anti-N NL63 Abs (Eurofins, Spain) or rabbit anti-β-catenin Abs (Santa Cruz), followed by antimouse or antirabbit secondary antibodies conjugated with HRP. Proteins were visualized and analyzed by chemiluminescence using the UVITEC Cambridge Alliance MINI HD detection system. The densitometric analysis of cells treated with 50 μM dose of a panel of glycoconjugates was performed based on three biological replicates of N and β-catenin immunoblots. The N protein levels were expressed as a percentage relative to DMSO-treated infected cells, while β-catenin levels were expressed as a percentage relative to noninfected control cells. The data were presented as the ratio of N/β-catenin for each sample, normalized accordingly.

HCoV-NL63 RNA synthesis = assay: HCoV-NL63 RNA level in infected LLC-Mk2 cells, RT-PCR; format: cell-based, human coronavirus NL63; details: MOI 0.01, 96 h p.i.
Method: LR7 or LLC-Mk2 were cultured in 12-well plate overnight. Next, LR7 cells were infected with MHV at an MOI value of 1 for 1 h or LLC-Mk2 cells were infected with HCoV-NL63 at an MOI value of 0.01 for 2 h. Following removal of unbound virus, cells were cultured with medium supplemented with different concentrations of selected compounds. 8 h p.i. (MHV) or 96 h p.i. (HCoV-NL63) cells were collected and total RNA was isolated by CoV RNA kit (A&A Biotechnology, Poland) according to the manufacturer’s instruction. To evaluate levels of viral RNA in infected cells Qiagen One-Step RT-PCR reaction was performed. Following reverse transcription, the PCR reaction was carried out using primers: F: […], R: […] for amplification of a fragment of HCoV-NL63 genome (position: 26418–26960 bp NC_005831.2) and F: […] and R: […] for amplification of a fragment of MHV genome (position: 30341–30902 bp FJ647225.1). For internal control fragment of β-actin mRNA was reverse transcribed and amplified using primers For: […] and Rev: […].

[10] = system: murine hepatitis virus (MHV); set-up: method as in not printed at the place; details: tunicamycin treatment; ref not given; cited from earlier work

CCCC(=O)O[C@H]1CN2CC[C@H](O)[C@@H]2[C@@H](O)[C@@H]1O [celgosivir]
adverse effects in humans [1]: diarrhea, weight loss, and flatulence

CC(=O)OC[C@H]1O[C@@H](SCc2cn(C[C@H]3O[C@@H](n4ccc(=O)[nH]c4=O)[C@H](O[Si](C)(C)C(C)(C)C)[C@@H]3O[Si](C)(C)C(C)(C)C)nn2)[C@H](OC(C)=O)[C@@H](OC(C)=O)[C@H]1OC(C)=O [Compound 21, 2′,3′-di-O-tert-Butyldimethylsilyl-5′-deoxy-5′-[4-(2″,3″,4″,6″-tetra-O-acetyl-β-D-galactopyranosylthiomethyl)-1,2-3-triazol-1-yl]-uridine]
reduction of SC-VLP entry compared with the control [2]: 80%
IC50 (SARS-CoV-2; Severe acute respiratory syndrome coronavirus 2, Vero): 19 µM
IC50 (SARS-CoV-2; Severe acute respiratory syndrome coronavirus 2, Vero cells, supernatant 48 h after infection, plaque assay): ~19 µM
CC50 at 48 h [3]: 65.3 µM
reduction of cell viability (cytotoxicity in uninfected cells) (LR7 cells): no detectable toxicity
protection against MHV-induced CPE ([4]; 50 μM, MOI 0.01, 24 h): significantly reduced cell death; also recorded: nearly eliminating CPE
concentration above which MHV-induced CPE was significantly reduced ([4]; MOI 0.01, 24 h p.i.): above 6.25 μM
dose above which no virus was detectable (MHV titer) ([5]; LR7 cells, 24 h p.i., plaque assay): above 6.25 μM
IC50 ([5]; LR7, read-out: IC50 (MHV)): 4.51 µM
IC50 ([5]; virus titer released from LR7 cells, MOI 0.01, 24 h p.i., plaque assay, read-out: IC50 (MHV)): 4.5 µM
CC50 at 96 h [6]: 46.7 µM
IC50 ([7]; 96 h, virus titer released from LLC-Mk2 cells, MOI 0.01, 4 days p.i., read-out: IC50 (HCoV-NL63)): 5.7 µM
IC50 ([7]; LLC-MK2, read-out: IC50 (HCoV-NL63)): 5.56 µM
antiviral efficacy against HCoV-NL63 compared with compound 24 ([7]; dose-response 0–25 μM, LLC-Mk2 cells): slightly lower activity
CC50 at 96 h [8]: > 100 µM
HCoV-NL63 N protein level [9]: significantly reduced; also recorded: No N protein was detected
concentration that effectively suppressed HCoV-NL63 RNA synthesis (HCoV-NL63 RNA synthesis): 12.5 µM

tunicamycin
effect on MHV viral titers [10]: significantly reducing viral titers

CCCCN1C[C@H](O)[C@@H](O)[C@H](O)[C@H]1CO [miglustat]
adverse effects in humans [1]: diarrhea, weight loss, and flatulence

Reference: article PMC12406196, “Anticoronavirus Activity of Uridine Glycoconjugates Containing a 1,2,3-Triazole Moiety” (Journal of Medicinal Chemistry, 2025)
